Data on 17 compounds can be found in patent US20240279237A1, “FUSED BICYCLIC HETEROARYL COMPOUNDS USEFUL AS NLRP3 INHIBITORS” (Hoffmann-La Roche Inc., priority 2021, published 2024).

The structures appear in SMILES notation. Structures can show the parent of a compound that is named as a salt.

The assay deals with T1, NLRP3 (Homo sapiens, UniProt Q96P20).
T1 construct: Seed THP-1 cells (25,000 cells/well) containing 1.0 μg/ml LPS in 40 μl of RPMI medium; host or cells: THP-1 cells
Nature of the assay: THP-1 Cells Pyroptosis Assay. Type of assay: cell-based. The following applies: THP-1 cells with 1.0 μg/ml LPS; compound 3 hours; nigericin 5 μM 1 hr; resazurin readout. On the procedure: The cells were routinely passaged and grown to confluency (˜10^6 cells/ml). On the day of the experiment, THP-1 cells were harvested and resuspended into RPMI medium (without FBS). The cells were then counted and viability (>90%) checked by Trypan blue (Sigma #T8154). […] To this diluted cell solution was added LPS (Sigma #L4524) to give a 1 μg/ml Final Assay Concentration (FAC). 40 μl of the final preparation was aliquoted into each well of a 96-well plate. The plate thus prepared was used for compound screening.
The following method step-by-step assay was followed for compound screening. • 1. […] Incubate for 3 hours at 37° C., 5% CO2 • 4. Add 5 μl nigericin (Sigma #N7143) (FAC 5 μM) to all wells • 5. Incubate for 1 hr at 37° C., 5% CO2 • 6. At the end of the incubation period, spin plates at 300×g for 3 mins and remove supernatant • 7. Then add 50 μl of resazurin (Sigma #R7017) (FAC 100 μM resazurin in RPMI medium without FBS) and incubate plates for a further 1-2 hours at 37° C. and 5% CO2 • 8.
Background: Resazurin is reduced to fluorescent resorufin, in cell work by metabolically active cells.

T1 sequence (Q96P20 whole entry): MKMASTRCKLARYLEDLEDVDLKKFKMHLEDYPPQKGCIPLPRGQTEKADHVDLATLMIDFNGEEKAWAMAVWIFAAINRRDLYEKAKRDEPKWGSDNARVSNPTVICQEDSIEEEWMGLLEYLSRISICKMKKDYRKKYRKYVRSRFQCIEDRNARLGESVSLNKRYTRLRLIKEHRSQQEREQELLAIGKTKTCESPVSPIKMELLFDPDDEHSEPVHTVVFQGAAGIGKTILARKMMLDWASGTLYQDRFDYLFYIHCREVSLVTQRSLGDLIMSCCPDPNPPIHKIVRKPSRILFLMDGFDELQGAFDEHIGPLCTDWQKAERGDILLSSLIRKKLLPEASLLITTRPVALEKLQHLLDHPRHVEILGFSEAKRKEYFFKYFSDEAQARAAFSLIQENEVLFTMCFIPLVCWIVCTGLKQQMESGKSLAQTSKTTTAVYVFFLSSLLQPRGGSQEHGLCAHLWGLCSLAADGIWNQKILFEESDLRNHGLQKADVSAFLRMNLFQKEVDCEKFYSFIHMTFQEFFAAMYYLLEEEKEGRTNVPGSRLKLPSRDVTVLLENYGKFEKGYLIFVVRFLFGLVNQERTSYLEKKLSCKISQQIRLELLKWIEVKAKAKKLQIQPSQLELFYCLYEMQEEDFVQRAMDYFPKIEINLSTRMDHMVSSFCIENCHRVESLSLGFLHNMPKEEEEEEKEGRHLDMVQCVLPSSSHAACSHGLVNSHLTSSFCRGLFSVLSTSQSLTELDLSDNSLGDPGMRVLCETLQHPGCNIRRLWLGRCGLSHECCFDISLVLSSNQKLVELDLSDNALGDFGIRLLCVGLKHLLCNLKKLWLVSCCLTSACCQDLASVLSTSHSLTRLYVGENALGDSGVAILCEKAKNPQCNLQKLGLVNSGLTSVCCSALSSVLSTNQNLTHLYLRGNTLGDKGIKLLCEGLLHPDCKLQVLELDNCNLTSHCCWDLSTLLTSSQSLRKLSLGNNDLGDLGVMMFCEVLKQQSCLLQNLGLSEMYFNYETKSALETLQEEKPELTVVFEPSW

As a reminder, the IC50 is the point on the concentration scale where inhibition reaches its midpoint. A higher IC50 goes with weaker potency in that assay. `Cc1cc(C#N)cc(O)c1-c1ccc2oc(N3CCC4CCN(C)CC43)nc2n1` (single isomer, unassigned) [Example 27A, 4-[2-[(3aS,7aR or 3aR,7aS)-6-methyl-3,3a,4,5,7,7a-hexahydro-2H-pyrrolo[2,3-c]pyridin-1-yl]oxazolo[4,5-b]pyridin-5-yl]-3-hydroxy-5-methyl-benzonitrile] gave an IC50 of 578 nM.

`Cc1cc(C#N)cc(O)c1-c1ccc2oc(N3CCC4CCN(C)CC43)nc2n1` (single isomer, unassigned) [Example 27B, 4-[2-[(3aR,7aS or 3aS,7aR)-6-methyl-3,3a,4,5,7,7a-hexahydro-2H-pyrrolo[2,3-c]pyridin-1-yl]oxazolo[4,5-b]pyridin-5-yl]-3-hydroxy-5-methyl-benzonitrile] registered a half-maximal inhibitory concentration (IC50) of 2.7 nM.

In turn, `Cc1cc(C(F)(F)F)cc(O)c1-c1ccc2oc(N3CC[C@@H]4CCN(C)C[C@@H]43)nc2n1` (single isomer, unassigned) [Example 37A, 2-[2-[(3aS,7aR)-6-Methyl-3,3a,4,5,7,7a-hexahydro-2H-pyrrolo[2,3-c]pyridin-1-yl]oxazolo[4,5-b]pyridin-5-yl]-3-methyl-5-(trifluoromethyl)phenol or 2-[2-[(3aR,7aS)-6-methyl-3,3a,4,5,7,7a-hexahydro-2H-pyrrolo[2,3-c]pyridin-1-yl]oxazolo[4,5-b]pyridin-5-yl]-3-methyl-5-(trifluoromethyl)phenol] had an IC50 of 216 nM.

Turning to `Cc1cc(C(F)(F)F)cc(O)c1-c1ccc2oc(N3CC[C@H]4CCN(C)C[C@H]43)nc2n1` (single isomer, unassigned) [Example 37B, 2-[2-[(3aR,7aS)-6-methyl-3,3a,4,5,7,7a-hexahydro-2H-pyrrolo[2,3-c]pyridin-1-yl]oxazolo[4,5-b]pyridin-5-yl]-3-methyl-5-(trifluoromethyl)-phenol or 2-[2-[(3aS,7aR)-6-Methyl-3,3a,4,5,7,7a-hexahydro-2H-pyrrolo[2,3-c]pyridin-1-yl]oxazolo[4,5-b]pyridin-5-yl]-3-methyl-5-(trifluoromethyl)phenol], the IC50 was 1.1 nM.

With `CCN1CCC2CCN(c3nc4nc(-c5c(C)cc(C#N)cc5O)ccc4o3)C2C1` (single isomer, unassigned) [Example 72A, 4-[2-[(3aS,7aR)-6-Ethyl-3,3a,4,5,7,7a-hexahydro-2H-pyrrolo[2,3-c]pyridin-1-yl]oxazolo[4,5-b]pyridin-5-yl]-3-hydroxy-5-methyl-benzonitrile or 4-[2-[(3aR,7aS)-6-ethyl-3,3a,4,5,7,7a-hexahydro-2H-pyrrolo[2,3-c]pyridin-1-yl]oxazolo[4,5-b]pyridin-5-yl]-3-hydroxy-5-methyl-benzonitrile], the IC50 is 1 nM.

For `CCN1CCC2CCN(c3nc4nc(-c5c(C)cc(C#N)cc5O)ccc4o3)C2C1` (single isomer, unassigned) [Example 72B, 4-[2-[(3aR,7aS)-6-ethyl-3,3a,4,5,7,7a-hexahydro-2H-pyrrolo[2,3-c]pyridin-1-yl]oxazolo[4,5-b]pyridin-5-yl]-3-hydroxy-5-methyl-benzonitrile or 4-[2-[(3aS,7aR)-6-Ethyl-3,3a,4,5,7,7a-hexahydro-2H-pyrrolo[2,3-c]pyridin-1-yl]oxazolo[4,5-b]pyridin-5-yl]-3-hydroxy-5-methyl-benzonitrile], it took 310 nM to reach half-maximal inhibition (IC50).

In turn, `Cc1cc(Cl)cc(O)c1-c1ccc2oc([C@H]3CCC(=O)NC3)nc2n1` (single isomer, unassigned) [Example 73A, (5S)-5-[5-(4-Chloro-2-hydroxy-6-methyl-phenyl)oxazolo[4,5-b]pyridin-2-yl]piperidin-2-one or (5R)-5-[5-(4-Chloro-2-hydroxy-6-methyl-phenyl)oxazolo[4,5-b]pyridin-2-yl]piperidin-2-one] registered a half-inhibitory concentration (IC50) of 18.7 nM.

`Cc1cc(Cl)cc(O)c1-c1ccc2oc([C@@H]3CCC(=O)NC3)nc2n1` (single isomer, unassigned) [Example 73B, (5R)-5-[5-(4-Chloro-2-hydroxy-6-methyl-phenyl)oxazolo[4,5-b]pyridin-2-yl]piperidin-2-one or (5S)-5-[5-(4-chloro-2-hydroxy-6-methyl-phenyl)oxazolo[4,5-b]pyridin-2-yl]piperidin-2-one] yielded a 50% inhibitory concentration (IC50) of 78.7 nM.

`Cc1cc(C#N)cc(O)c1-c1ccc2oc(N[C@H]3CCCN4CCC[C@@H]34)nc2n1` (single isomer, unassigned) [Example 139A, 4-[2-[[(8S,8aS)-1,2,3,5,6,7,8,8a-Octahydroindolizin-8-yl]amino]oxazolo[4,5-b]pyridin-5-yl]-3-hydroxy-5-methyl-benzonitrile or 4-[2-[[(8R,8aR)-1,2,3,5,6,7,8,8a-octahydroindolizin-8-yl]amino]oxazolo[4,5-b]pyridin-5-yl]-3-hydroxy-5-methyl-benzonitrile] came in with an IC50 of 3.7 nM.

Compound `Cc1cc(C#N)cc(O)c1-c1ccc2oc(NC3CCCN4CCCC34)nc2n1` (single isomer, unassigned) [Example 139B, 4-[2-[[(8R,8aR)-1,2,3,5,6,7,8,8a-Octahydroindolizin-8-yl]amino]oxazolo[4,5-b]pyridin-5-yl]-3-hydroxy-5-methyl-benzonitrile or 4-[2-[[(8S,8aS)-1,2,3,5,6,7,8,8a-octahydroindolizin-8-yl]amino]oxazolo[4,5-b]pyridin-5-yl]-3-hydroxy-5-methyl-benzonitrile] returned a concentration for half-maximal inhibition (IC50) of 59.9 nM.

On to `Cc1cc(C(F)(F)F)cc(O)c1-c1ccc2oc(N3CCOCC3)nc2n1` [Example 4, 3-Methyl-2-(2-morpholinooxazolo[4,5-b]pyridin-5-yl)-5-(trifluoromethyl)phenol], for which the IC50 is 29.4 nM.

In the case of `Cc1cc(C(F)(F)F)cc(O)c1-c1ccc2oc(N3CCNCC3)nc2n1` [Example 6, 3-Methyl-2-(2-piperazin-1-yloxazolo[4,5-b]pyridin-5-yl)-5-(trifluoromethyl)phenol formic acid salt], half-maximal inhibition (IC50) was put at 86.6 nM.

Consider `Cc1cc(C(F)(F)F)cc(O)c1-c1ccc2[nH]c(N3CCNCC3)nc2n1` [Example 8, 3-Methyl-2-(2-piperazin-1-yl-1H-imidazo[4,5-b]pyridin-5-yl)-5-(trifluoromethyl)phenol;2,2,2-trifluoroacetic acid], for which the 50% inhibitory concentration (IC50) came to 302 nM.

Regarding `Cc1cc(C(F)(F)F)cc(O)c1-c1ccc2oc(N3CC(O)C3)nc2n1` [Example 12, 1-[5-[2-Hydroxy-6-methyl-4-(trifluoromethyl)phenyl]oxazolo[4,5-b]pyridin-2-yl]azetidin-3-ol], the IC50 was determined as 215 nM.

`Cc1cc(C(F)(F)F)cc(O)c1-c1ccc2oc(NC3CCCC(O)C3)nc2n1` (centres unmarked) [Example 13, 2-[2-[(3-Hydroxycyclohexyl)amino]oxazolo[4,5-b]pyridin-5-yl]-3-methyl-5-(trifluoromethyl)phenol] yielded an IC50 of 442 nM.

The compound `CCN1CCC[C@@H](Nc2nc3nc(-c4c(C)cc(C(F)(F)F)cc4O)ccc3o2)C1` [Example 14, 2-[2-[[(3R)-1-Ethyl-3-piperidyl]amino]oxazolo[4,5-b]pyridin-5-yl]-3-methyl-5-(trifluoromethyl)phenol] displayed an IC50 of 1 nM.

With `Cc1cc(C(F)(F)F)cc(O)c1-c1ccc2oc(N[C@@H]3CCCN(C)C3)nc2n1` [Example 15, 3-Methyl-2-[2-[[(3R)-1-methyl-3-piperidyl]amino]oxazolo[4,5-b]pyridin-5-yl]-5-(trifluoromethyl)phenol], the midpoint of inhibition, the IC50, lay at 0.7 nM.
